GI50 and TGI data for 8 molecules are collected here from PubChem BioAssay (NCI).

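How tested: cells in 96-well plates exposed to compound for 48 hours at five concentrations. Here, GI50 denotes the concentration required for 50% inhibition of growth. At the TGI there is no net growth.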

Test systems include UO-31 renal; NCI-H522 lung; MOLT-4 leukemia; NCI-H460 lung; OVCAR-8 ovarian; SK-MEL-5 melanoma; HCC-2998 colon; COLO 205 colon; UACC-257 melanoma; SF-295 CNS.
What all share (assay): NCI anticancer screen, dose series, 48 h

Regarding `Nc1nc(Nc2cccc(F)c2)nc2ccccc12`, the GI50 was 19 µM with UO-31 renal; 23.9 µM in the assay on NCI-H522 lung; 14.6 µM in the assay with MOLT-4 leukemia; 20.1 µM with NCI-H460 lung; 31.9 µM with OVCAR-8 ovarian; 14.5 µM in the assay on SK-MEL-5 melanoma. The GI50 in the assay on HCC-2998 colon is 18 µM; in the assay with COLO 205 colon, 15.9 µM; in the assay on UACC-257 melanoma it was 17.4 µM; with SF-295 CNS, 17.8 µM. The TGI in the assay with UO-31 renal is 61.2 µM; in the assay on NCI-H522 lung it was 54 µM; with MOLT-4 leukemia, more than 100 µM; with NCI-H460 lung it was 57.3 µM; with OVCAR-8 ovarian, more than 100 µM; in the assay on SK-MEL-5 melanoma it was 28.3 µM. The TGI in the assay with HCC-2998 colon was 37.3 µM; in the assay on COLO 205 colon it was 34 µM; in the assay on UACC-257 melanoma, 34.1 µM; in the assay on SF-295 CNS, 42.7 µM.

As to `CCSc1nc(COC(=O)NC)c(COC(=O)NC)n1C`, the TGI in the assay on UO-31 renal was more than 100 µM; in the assay with NCI-H522 lung, more than 95.4 µM; in the assay on MOLT-4 leukemia it was more than 100 µM; with NCI-H460 lung, more than 100 µM; with OVCAR-8 ovarian, more than 100 µM; in the assay with SK-MEL-5 melanoma, more than 100 µM. The TGI with HCC-2998 colon was more than 100 µM; in the assay on COLO 205 colon, more than 85.1 µM; with UACC-257 melanoma, more than 100 µM; in the assay on SF-295 CNS it was more than 100 µM.

For the molecule `O=C(O)CCC1CCc2cccc3occ1c23` (stereo not given), the TGI in the assay on UO-31 renal, in the assay on NCI-H522 lung, in the assay on MOLT-4 leukemia, in the assay on NCI-H460 lung, with OVCAR-8 ovarian and with SK-MEL-5 melanoma was more than 100 µM each time. Further, the TGI in the assay with HCC-2998 colon, in the assay with COLO 205 colon, in the assay with UACC-257 melanoma and with SF-295 CNS was more than 100 µM in each case.

As to `COc1ccc2c(C(=O)O)cc3cc(OC)c(OC)cc3c2c1`, the TGI in the assay with UO-31 renal, in the assay with NCI-H522 lung, in the assay on MOLT-4 leukemia, in the assay with NCI-H460 lung, in the assay with OVCAR-8 ovarian and in the assay with SK-MEL-5 melanoma was more than 100 µM throughout. Further, the TGI in the assay on HCC-2998 colon, in the assay on COLO 205 colon, with UACC-257 melanoma and in the assay on SF-295 CNS was more than 100 µM each time.

`NCc1ccc(-n2c(-c3nonc3N)nc3cnccc32)cc1`: the GI50 in the assay on UO-31 renal was 0.442 µM; in the assay with NCI-H522 lung, 7.66 µM; in the assay on MOLT-4 leukemia, 12.3 µM; in the assay on NCI-H460 lung, 13.7 µM; with OVCAR-8 ovarian, 6.76 µM; with SK-MEL-5 melanoma it was 9.25 µM. Besides, the GI50 in the assay with HCC-2998 colon was 23.8 µM; in the assay with COLO 205 colon it was 5.53 µM; in the assay on UACC-257 melanoma it was more than 25 µM; in the assay on SF-295 CNS, 16 µM. In addition, the TGI with UO-31 renal, with NCI-H522 lung, in the assay on MOLT-4 leukemia, with NCI-H460 lung, with OVCAR-8 ovarian and in the assay on SK-MEL-5 melanoma was more than 25 µM each time. For the same molecule, the TGI in the assay on HCC-2998 colon, with COLO 205 colon, in the assay with UACC-257 melanoma and in the assay on SF-295 CNS was more than 25 µM throughout.

For the molecule `CC1=CC(=O)C(C(C)=Nc2ccccc2Cl)C(=O)O1` (stereo not given), the GI50 in the assay with UO-31 renal, in the assay on NCI-H522 lung, in the assay with MOLT-4 leukemia, in the assay on NCI-H460 lung, in the assay on OVCAR-8 ovarian and with SK-MEL-5 melanoma was more than 100 µM throughout. In addition, the GI50 in the assay with HCC-2998 colon, in the assay on COLO 205 colon, with UACC-257 melanoma and in the assay with SF-295 CNS was more than 100 µM each time. The TGI with UO-31 renal, with NCI-H522 lung, in the assay with MOLT-4 leukemia, with NCI-H460 lung, with OVCAR-8 ovarian and with SK-MEL-5 melanoma was more than 100 µM in each case. Also, the TGI with HCC-2998 colon, with COLO 205 colon, in the assay with UACC-257 melanoma and in the assay with SF-295 CNS was more than 100 µM in each case.

As for `Cc1cccc(C(C)(C)C)c1NC(=O)C(=O)C(c1cnc2ccccc2n1)[N+](=O)[O-]` (stereo not given), the TGI with UO-31 renal, in the assay with NCI-H522 lung, in the assay on MOLT-4 leukemia, in the assay with NCI-H460 lung, with OVCAR-8 ovarian and with SK-MEL-5 melanoma was more than 100 µM each time. Also, the TGI in the assay with HCC-2998 colon, with COLO 205 colon, in the assay on UACC-257 melanoma and with SF-295 CNS was more than 100 µM throughout.

For `CCO[C@@H]1C2C=CC(C2)[C@H]1[N+](=O)[O-]` (stereo not given in full), the TGI in the assay on UO-31 renal, with NCI-H522 lung, in the assay on MOLT-4 leukemia, in the assay on NCI-H460 lung, in the assay on OVCAR-8 ovarian and in the assay on SK-MEL-5 melanoma was more than 100 µM throughout. In addition, the TGI in the assay on HCC-2998 colon, in the assay with COLO 205 colon, in the assay on UACC-257 melanoma and in the assay with SF-295 CNS was more than 100 µM throughout.
